Experimental data as given in ChEMBL document CHEMBL5465560, “Selectivity Literature for EUbOPEN Chemogenomic Library” (2024).

Tests used:
[1] = biological target: Receptor-interacting serine/threonine-protein kinase 2 (Homo sapiens, UniProt O43353); assay: Selectivity interaction (Competition-binding assay (DiscoverX)) EUB0000229b RIPK2
[2] = biological target: T1, Cyclin-G-associated kinase (Homo sapiens) (UniProt O14976); assay: Selectivity interaction (DSF assay) EUB0000229b GAK
T1 sequence (whole entry): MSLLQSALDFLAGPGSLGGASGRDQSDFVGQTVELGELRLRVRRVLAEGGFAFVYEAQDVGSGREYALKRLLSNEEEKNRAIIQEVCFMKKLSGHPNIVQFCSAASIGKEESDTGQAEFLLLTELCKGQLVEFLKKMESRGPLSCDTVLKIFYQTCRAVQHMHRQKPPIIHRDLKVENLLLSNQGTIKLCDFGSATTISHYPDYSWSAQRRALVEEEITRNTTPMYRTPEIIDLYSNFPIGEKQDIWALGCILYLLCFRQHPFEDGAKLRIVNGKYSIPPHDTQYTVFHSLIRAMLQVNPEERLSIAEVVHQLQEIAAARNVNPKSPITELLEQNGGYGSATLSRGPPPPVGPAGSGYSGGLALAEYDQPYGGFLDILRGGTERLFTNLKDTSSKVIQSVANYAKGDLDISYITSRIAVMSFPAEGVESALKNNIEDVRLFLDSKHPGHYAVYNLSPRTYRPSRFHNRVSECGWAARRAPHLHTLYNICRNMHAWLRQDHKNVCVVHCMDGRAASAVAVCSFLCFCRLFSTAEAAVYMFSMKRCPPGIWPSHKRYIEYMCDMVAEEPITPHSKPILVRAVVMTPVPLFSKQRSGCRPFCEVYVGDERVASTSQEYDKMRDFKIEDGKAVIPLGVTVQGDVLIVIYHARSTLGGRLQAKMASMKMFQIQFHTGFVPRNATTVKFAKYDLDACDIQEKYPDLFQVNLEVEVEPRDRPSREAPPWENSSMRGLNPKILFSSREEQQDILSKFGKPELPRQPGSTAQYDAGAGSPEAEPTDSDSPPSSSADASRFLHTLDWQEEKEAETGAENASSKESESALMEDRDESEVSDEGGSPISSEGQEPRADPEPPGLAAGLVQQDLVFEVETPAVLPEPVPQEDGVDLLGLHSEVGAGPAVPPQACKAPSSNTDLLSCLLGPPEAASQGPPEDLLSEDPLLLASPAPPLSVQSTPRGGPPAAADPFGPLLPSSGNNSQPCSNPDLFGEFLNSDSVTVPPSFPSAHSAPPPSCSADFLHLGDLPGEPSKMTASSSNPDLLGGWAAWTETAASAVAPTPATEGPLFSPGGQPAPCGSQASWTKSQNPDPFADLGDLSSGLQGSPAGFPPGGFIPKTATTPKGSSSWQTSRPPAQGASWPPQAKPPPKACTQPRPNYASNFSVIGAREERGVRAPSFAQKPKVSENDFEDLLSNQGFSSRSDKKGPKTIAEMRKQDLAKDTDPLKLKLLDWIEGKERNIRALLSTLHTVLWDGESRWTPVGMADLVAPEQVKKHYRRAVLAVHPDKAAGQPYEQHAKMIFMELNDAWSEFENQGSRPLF

[3] = biological target: T2, Mitogen-activated protein kinase kinase kinase kinase 2 (Homo sapiens) (UniProt Q12851); conditions: at 10 µM
T2 sequence (whole entry): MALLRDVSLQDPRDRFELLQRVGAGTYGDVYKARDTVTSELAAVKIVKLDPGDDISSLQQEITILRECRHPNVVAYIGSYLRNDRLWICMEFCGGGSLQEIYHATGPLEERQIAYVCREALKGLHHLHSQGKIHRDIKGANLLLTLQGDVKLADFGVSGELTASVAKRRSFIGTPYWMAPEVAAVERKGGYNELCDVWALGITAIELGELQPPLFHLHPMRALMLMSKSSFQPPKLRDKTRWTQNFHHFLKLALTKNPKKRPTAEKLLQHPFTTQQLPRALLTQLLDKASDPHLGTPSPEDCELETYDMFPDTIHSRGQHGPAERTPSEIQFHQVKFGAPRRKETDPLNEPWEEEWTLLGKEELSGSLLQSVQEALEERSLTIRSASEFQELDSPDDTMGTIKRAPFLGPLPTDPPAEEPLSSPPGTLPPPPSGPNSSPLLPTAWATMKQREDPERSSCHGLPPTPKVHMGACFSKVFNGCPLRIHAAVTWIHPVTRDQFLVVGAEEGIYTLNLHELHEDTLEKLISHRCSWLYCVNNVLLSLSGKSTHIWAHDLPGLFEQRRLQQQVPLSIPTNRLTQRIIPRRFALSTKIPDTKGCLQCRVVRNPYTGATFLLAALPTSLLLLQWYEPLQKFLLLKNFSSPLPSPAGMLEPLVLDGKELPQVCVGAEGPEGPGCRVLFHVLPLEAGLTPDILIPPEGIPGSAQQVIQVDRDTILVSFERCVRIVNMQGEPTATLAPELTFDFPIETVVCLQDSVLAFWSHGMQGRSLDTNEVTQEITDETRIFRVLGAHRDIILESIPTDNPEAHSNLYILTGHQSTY

[4] = biological target: Dual specificity protein kinase CLK4 (Homo sapiens, UniProt Q9HAZ1); assay: Selectivity interaction (KinomeScan (DiscoverX)) EUB0000618a CLK4; conditions: at 10 µM
[5] = biological target: T3, Cyclin-dependent kinase 11A (Homo sapiens) (UniProt Q9UQ88); assay: Selectivity interaction (KinomeScan (DiscoverX)) EUB0000618a CDK11A; conditions: at 10 µM
T3 sequence (whole entry): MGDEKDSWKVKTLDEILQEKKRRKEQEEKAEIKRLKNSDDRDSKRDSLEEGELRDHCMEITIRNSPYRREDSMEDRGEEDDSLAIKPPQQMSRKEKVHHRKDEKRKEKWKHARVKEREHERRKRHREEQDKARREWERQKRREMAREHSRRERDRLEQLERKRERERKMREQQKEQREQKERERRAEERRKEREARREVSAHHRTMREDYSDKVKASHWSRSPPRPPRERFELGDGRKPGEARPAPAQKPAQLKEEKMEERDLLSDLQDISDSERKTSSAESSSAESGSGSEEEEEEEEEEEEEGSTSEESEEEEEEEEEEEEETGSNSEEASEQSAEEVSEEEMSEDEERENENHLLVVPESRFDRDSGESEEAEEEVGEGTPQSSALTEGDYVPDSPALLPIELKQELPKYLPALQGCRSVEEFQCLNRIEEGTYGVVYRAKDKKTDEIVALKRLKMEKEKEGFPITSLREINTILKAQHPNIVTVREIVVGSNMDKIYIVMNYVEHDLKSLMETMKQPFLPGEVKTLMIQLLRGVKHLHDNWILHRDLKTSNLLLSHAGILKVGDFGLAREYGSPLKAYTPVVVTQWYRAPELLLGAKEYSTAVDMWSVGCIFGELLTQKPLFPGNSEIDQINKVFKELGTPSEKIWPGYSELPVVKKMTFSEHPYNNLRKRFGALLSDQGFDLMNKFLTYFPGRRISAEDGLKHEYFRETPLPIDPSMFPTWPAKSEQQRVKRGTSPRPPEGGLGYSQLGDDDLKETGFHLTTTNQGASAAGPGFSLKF

Sequence of Dual specificity protein kinase CLK4 (Q9HAZ1 whole entry, looked up): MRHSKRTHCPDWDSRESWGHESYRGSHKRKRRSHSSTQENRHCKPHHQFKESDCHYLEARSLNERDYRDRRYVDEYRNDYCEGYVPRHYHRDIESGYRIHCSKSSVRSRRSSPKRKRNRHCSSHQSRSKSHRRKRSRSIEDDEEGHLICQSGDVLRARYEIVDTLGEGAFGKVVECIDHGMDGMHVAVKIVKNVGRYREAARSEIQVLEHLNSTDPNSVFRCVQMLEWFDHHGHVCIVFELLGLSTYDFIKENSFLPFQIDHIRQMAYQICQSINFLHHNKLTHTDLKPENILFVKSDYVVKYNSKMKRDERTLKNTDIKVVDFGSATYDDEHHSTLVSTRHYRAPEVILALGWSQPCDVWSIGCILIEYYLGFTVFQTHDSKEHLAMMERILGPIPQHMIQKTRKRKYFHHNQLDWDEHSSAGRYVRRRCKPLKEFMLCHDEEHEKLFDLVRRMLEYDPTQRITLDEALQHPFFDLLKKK
Sequence of Receptor-interacting serine/threonine-protein kinase 2 (O43353 whole entry): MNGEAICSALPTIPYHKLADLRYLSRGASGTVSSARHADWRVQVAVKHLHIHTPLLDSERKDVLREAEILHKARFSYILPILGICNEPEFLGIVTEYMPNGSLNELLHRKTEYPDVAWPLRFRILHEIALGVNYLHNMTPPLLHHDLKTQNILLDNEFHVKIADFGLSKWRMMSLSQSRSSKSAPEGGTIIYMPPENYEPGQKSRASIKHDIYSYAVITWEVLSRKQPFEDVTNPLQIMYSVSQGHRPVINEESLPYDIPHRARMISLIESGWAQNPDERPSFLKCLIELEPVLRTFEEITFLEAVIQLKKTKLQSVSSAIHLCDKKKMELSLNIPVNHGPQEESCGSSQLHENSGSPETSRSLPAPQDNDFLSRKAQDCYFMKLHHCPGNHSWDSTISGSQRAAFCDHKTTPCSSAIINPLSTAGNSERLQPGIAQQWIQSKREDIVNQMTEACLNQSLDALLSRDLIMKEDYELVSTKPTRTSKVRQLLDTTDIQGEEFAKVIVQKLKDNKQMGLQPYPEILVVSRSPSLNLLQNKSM

COc1cc(N(C)c2ccnc3ccc(C(F)(F)F)cc23)cc(OC)c1OC
Kd [1]: 4.9 µM | dTm [2]: -0.3 K

Cc1cc([C@@H](C)Nc2ccccc2C(=O)O)c2nc(N3CCOCC3)cc(=O)n2c1 [AZD-6482]
% of control [3]: 56%

O[C@H]1CC[C@H](Nc2ncc3nc(Nc4c(F)cc(F)cc4F)n([C@H]4CCOC4)c3n2)CC1
% of control [4]: 100% | % of control [5]: 100%
